Where two headings read alike, the source gives them in different places.
Key:
[1] = Cellular toxicity in MT-4 cells (XTT staining); assay type: cell-based; conditions: human, 6 days incubation, read-out: TC50 (50% reduction in cell viability)
Protocol: (§1) The compounds were evaluated for inhibition of HIV-1IIIB infection and cellular toxicity in MT-4 cells.
(§2) The MT-4 cells and […] used in the HIV-1 inhibition assays were obtained from the AIDS Research and Reference Program (Rockville, MD) and propagated as recommended by the supplier.
(§3) Fifty microliters (50 μL) of MT-4 cells at a density of 1.0×10^4 cells/well in 10% complete RPMI-1640 (10% FBS supplemented with 1% L-glutamine and 1% Penicillin/Streptomycin) media were plated in a 96-well flat bottom plate. One-hundred microliters (100 μL) of each compound at 12 concentrations were added in triplicate followed by 50 μL of HIV-1IIIB at a pre-determined titer. The cultures were incubated for 6 days at 37° C./5% CO2. Following the incubation, the cells were stained with XTT for evaluation of compound efficacy and cellular toxicity, as described below.
(§4) Efficacy and toxicity values for the test materials were derived by measuring the reduction of the tetrazolium dye XTT (2,3-bis(2-methoxy-4-nitro-5-sulfophenyl)-5-[(phenylamino)carbonyl]-2H-tetrazolium hydroxide). XTT in metabolically active cells is metabolized by the mitochondrial enzyme NADPH oxidase to a soluble formazan product. XTT solution was prepared daily as a stock of 1 mg/mL in RPMI-1640 without additives. Phenazine methosulfate (PMS) solution was prepared at 0.15 mg/mL in DPBS and stored in the dark at −20° C. XTT/PMS stock was prepared immediately before use by adding 40 μL of PMS per mL of XTT solution. Fifty μL (50 μL) of XTT/PMS was added to each well of the plate and the plate incubated for 4 hours at 37° C. The 4-hour incubation has been empirically determined to be within the linear response range for XTT dye reduction with the indicated numbers of cells for each assay. The plates were sealed and inverted several times to mix the soluble formazan product and the plate was read at 450 nm (650 nm reference wavelength) with a Molecular Devices SpectraMax Plus 384 96 well plate format spectrophotometer.
(§5) Microsoft Excel 2010 in combination with XLfit4 was used to analyze and graph the data. EC50 (50% inhibition of virus replication), TC50 (50% reduction in cell viability) and a therapeutic index (TC50/EC50) are provided. Raw data for both antiviral activity and toxicity with a graphic representation of the data are provided in a printout summarizing the compound activity.

[2] = test system: HIV-1IIIB; assay: Inhibition of HIV-1IIIB infection in MT-4 cells (XTT staining); assay type: cell-based; conditions: HIV-1IIIB in MT-4 cells; for EC50: 6 days incubation, XTT, read-out: EC50 (50% inhibition of virus replication)
Protocol: as §1, §2, §3, §4, §5

[3] = Human immunodeficiency virus 1, MT4, 144 h

Row | SMILES | CC50 at 6 days [1] [nM] | EC50 [2] [nM] | Therapeutic Index (TC50/EC50) [2] | EC50 [2, 3] [nM]
1 | Cn1nc(NS(C)(=O)=O)c2c(Cl)ccc(-n3c([C@H](Cc4cc(F)cc(F)c4)NC(=O)Cn4nc(C(F)(F)F)c5c4C(F)(F)[C@@H]4C[C@H]54)nc4sccc4c3=O)c21 (atropisomer, axis not shown) [Compound 32] | > 100 | > 100 | – | –
2 | Cn1nc(NS(C)(=O)=O)c2c(Cl)ccc(-n3c([C@H](Cc4cc(F)cc(F)c4)NC(=O)Cn4nc(C(F)(F)F)c5c4C(F)(F)[C@@H]4C[C@H]54)nc4c(c3=O)CCCN4)c21 (atropisomer, axis not shown) [Compound 34] | > 100 | – | >42.6 | 2.35
3 | Cn1nc(NS(C)(=O)=O)c2c(Cl)ccc(-n3c([C@H](Cc4cc(F)cc(F)c4)NC(=O)Cn4nc(C(F)(F)F)c5c4C(F)(F)[C@@H]4C[C@H]54)nc4ncsc4c3=O)c21 (atropisomer, axis not shown) [Compound 35] | > 100 | > 100 | – | –
4 | Cn1nc(NS(C)(=O)=O)c2c(Cl)ccc(-n3c([C@H](Cc4cc(F)cc(F)c4)NC(=O)Cn4nc(C(F)(F)F)c5c4C(F)(F)[C@@H]4C[C@H]54)nc4onc(-c5ccccc5)c4c3=O)c21 (atropisomer, axis not shown) [Compound 37] | > 100 | 11.1 | >9.0 | –
5 | Cn1nc(NS(C)(=O)=O)c2c(Cl)ccc(-n3c([C@H](Cc4cc(F)cc(F)c4)NC(=O)Cn4nc(C(F)(F)F)c5c4C(F)(F)[C@@H]4C[C@H]54)nc4nc(N5CCOC(C)(C)C5)sc4c3=O)c21 (atropisomer, axis not shown) [Compound 40] | > 100 | – | >492.6 | 0.203
6 | Cn1nc(NS(C)(=O)=O)c2c(Cl)ccc(-n3c([C@H](Cc4cc(F)cc(F)c4)NC(=O)Cn4nc(C(F)(F)F)c5c4C(F)(F)[C@@H]4C[C@H]54)nc4nc(N5CC6(COC6)C5)sc4c3=O)c21 (atropisomer, axis not shown) [Compound 41] | > 100 | – | >193.4 | 0.517
7 | Cn1nc(NS(C)(=O)=O)c2c(Cl)ccc(-n3c([C@H](Cc4cc(F)cc(F)c4)NC(=O)Cn4nc(C(F)(F)F)c5c4C(F)(F)[C@@H]4C[C@H]54)nc4sc(-c5ccc(F)cc5)cc4c3=O)c21 (atropisomer, axis not shown) [Compound 42] | > 100 | – | >26.4 | 3.79
8 | Cc1nsc2nc([C@H](Cc3cc(F)cc(F)c3)NC(=O)Cn3nc(C(F)(F)F)c4c3C(F)(F)[C@@H]3C[C@H]43)n(-c3ccc(Cl)c4c(NS(C)(=O)=O)nn(C)c34)c(=O)c12 (atropisomer, axis not shown) [Compound 44] | > 100 | 34.1 | >2.9 | –
9 | CN(C)c1nc2nc([C@H](Cc3cc(F)cc(F)c3)NC(=O)Cn3nc(C(F)(F)F)c4c3C(F)(F)[C@@H]3C[C@H]43)n(-c3ccc(Cl)c4c(NS(C)(=O)=O)nn(C)c34)c(=O)c2s1 (atropisomer, axis not shown) [Compound 48] | > 100 | – | >432.9 | 0.231
10 | Cn1nc(NS(C)(=O)=O)c2c(Cl)ccc(-n3c([C@H](Cc4cc(F)cc(F)c4)NC(=O)Cn4nc(C(F)(F)F)c5c4C(F)(F)[C@@H]4C[C@H]54)nc4nc(OCCC(F)(F)F)sc4c3=O)c21 (atropisomer, axis not shown) [Compound 53] | > 100 | – | >980.4 | 0.102
11 | CC1(C)CN(c2nc3nc([C@H](Cc4cc(F)cc(F)c4)NC(=O)Cn4nc(C(F)(F)F)c5c4C(F)(F)[C@@H]4C[C@H]54)n(-c4ccc(Cl)c5c(NS(C)(=O)=O)nn(CC(F)(F)F)c45)c(=O)c3s2)CCO1 (racemic) [Compound 52] | > 100 | – | >653.6 | 0.153
